From patent US20200377561A1, “ANTIMICROBIAL PEPTIDES AND METHODS OF TREATING GRAM-NEGATIVE PATHOGEN INFECTIONS: POLAR AND NON-POLAR FACE ANALOGS” (THE REGENTS OF THE UNIVERSITY OF COLORADO, a body corporate, priority 2017, published 2020) come the findings set out here.

Where two headings read alike, the source gives them in different places. Peptide text beside a SMILES is read from it.

The test system of data set [1] is Acinetobacter baumannii NCTC 13420. The data set is classed as cell-based. As to the method:
(§1) Bacterial strains were acquired from the American Type Culture Collection (ATCC, Virginia, USA) and the National Collection of Type Cultures (NCTC, Public Health England, Salisbury, UK). Minimum Inhibitory Concentration (MIC) of peptides versus gram-negative strains-Acinetobacter baumannii NCTC 13420, and Pseudomonas aeruginosa ATCC 27853 and gram-positive strain Staphylococcus aureus ATCC 29213, were determined by broth microdilution as per the guidelines of the Clinical and Laboratory Standards Institute (“Methods for Dilution Antimicrobial Susceptibility Tests for Bacteria That Grow Aerobically”; Approved Standard-Ninth Edition. CLSI document M07-A9, 2012). Peptides were dissolved in sterile distilled water, which was also used as the drug-free vehicle control when determining peptide MICs. Prior to use in the MIC protocol, bacterial strains were grown on Mueller Hinton agar at 37° C. in an ambient atmosphere. […] A fixed inoculum of the test microorganism (5×10^5 cells/mL) is also added to the plate. The MIC is determined as the lowest concentration of compound that inhibits visible bacterial growth following incubation at 37° C. for 16-20 hours. A difference in MIC of two-fold between experimental replicates is considered to be within the normal variability of this protocol.

The test system of data set [2] is Pseudomonas aeruginosa ATCC 27853. The data set is classed as cell-based. As to the method:
as §1

Data set [3] relates to Staphylococcus aureus ATCC 29213. The data set is classed as cell-based. As to the method: as §1
A further data set relates to Human erythrocytes. Nature of the data set: Haemolysis assay using human blood. The data set is classed as cell-based. As to the method:
To determine the extent of haemolytic activity (the ability to lyse red blood cells) in test peptides, a haemolysis assay was conducted using human blood (BioIVT, West Sussex, UK). Human erythrocytes were exposed to a single fixed concentration or a range of concentrations as to determine the % haemolysis (fixed concentration) or the concentration at which 50% haemolysis occurred (HC50), respectively. Prior to the assay, whole human blood was repeatedly washed in phosphate buffered saline (PBS) under cooled conditions to remove the buffy coat, plasma and cell debris. Washed erythrocytes were diluted as to achieve 1×10^8 cells/mL in PBS. Prepared human erythrocyte samples were combined with peptide at a single fixed concentration of 128 μg/mL, or a range of concentrations (two-fold dilution series) from 1000-31.25 μg/mL. Positive and negative controls containing 2% (v/v) Triton X-100 and PBS alone, respectively, were also prepared. Samples were incubated at 37° C. for 1 hour and then centrifuged to collect intact erythrocytes. Haemoglobin release was determined by recording the optical density of the supernatant at 540 nm. Optical density values were transformed to a percentage of the positive control. Results were recorded as a percentage haemolysis at 128 μg/mL, or by plotting the percentage haemolysis versus concentration and extrapolating the HC50 using linear regression analysis (Table 2 above)
The therapeutic index is a widely-accepted parameter to represent the specificity of antimicrobial peptides for prokaryotic versus eukaryotic cells. It is calculated by the ratio of hemolytic activity and antimicrobial activity (MIC) (Table 2 above); thus, larger values of therapeutic index indicate greater specificity for prokaryotic cells. With the peptides used in this study the inventors used the HC50/MIC ratio value to calculate the therapeutic index.

Data set [4] in a line: Peptide hydrophobicity by RP-HPLC retention. The data set is classed as physicochemical. As to conditions: Zorbax SB-300 C8, 0.25% B/min from 10% B, 0.3 ml/min, 30° C. The text has this:
Retention behavior in RP-HPLC is an excellent method to represent overall peptide hydrophobicity. Retention times of peptides are highly sensitive to the conformational status of the peptides upon interaction with the hydrophobic environment of the column matrix^17,26. The non-polar faces of amphipathic alpha-helical and amphipathic cyclic beta-sheet peptides represent a preferred binding domain for interaction with the hydrophobic matrix of the reversed-phase column^27. In this study, the observed peptide hydrophobicity was determined by RP-HPLC retention time as described below and are relative hydrophobicities because they are dependent on the TFA concentration and organic solvent in the mobile phase, gradient rate, temperature, flow rate and the column used. Analytical Purification by Reversed-phase Chromatography: Analytical RP-HPLC: Column: Zorbax SB-300 C8 (150×2.1 mm ID; 5-μm particle size; 300 Å pore size). Conditions: linear AB gradient (0.25% B/min from 10% B) at a flow-rate of 0.3 ml/min, where Eluent A is 0.2% aq. TFA and Eluent B is 0.18% TFA in acetonitrile; 30° C.

Data set [5] relates to Acinetobacter baumannii NCTC 13420. The data set is classed as cell-based. The following applies: CA-MHB supplemented with 20% human serum (v/v). As to the method: Bacterial strains were acquired from the American Type Culture Collection (ATCC, Virginia, USA) and the National Collection of Type Cultures (NCTC, Public Health England, Salisbury, UK). Minimum Inhibitory Concentration (MIC) of peptides versus gram-negative strains-Acinetobacter baumannii NCTC 13420, and Pseudomonas aeruginosa ATCC 27853 and gram-positive strain Staphylococcus aureus ATCC 29213, were determined by broth microdilution as per the guidelines of the Clinical and Laboratory Standards Institute (“Methods for Dilution Antimicrobial Susceptibility Tests for Bacteria That Grow Aerobically”; Approved Standard-Ninth Edition. CLSI document M07-A9, 2012). Peptides were dissolved in sterile distilled water, which was also used as the drug-free vehicle control when determining peptide MICs. Prior to use in the MIC protocol, bacterial strains were grown on Mueller Hinton agar at 37° C. in an ambient atmosphere. […] A fixed inoculum of the test microorganism (5×10^5 cells/mL) is also added to the plate. The MIC is determined as the lowest concentration of compound that inhibits visible bacterial growth following incubation at 37° C. for 16-20 hours. A difference in MIC of two-fold between experimental replicates is considered to be within the normal variability of this protocol. […]

Setting [6] is: cation-adjusted Mueller Hinton broth, 37° C., 16-20 hours.
The mark [7] stands for this setting: human erythrocytes, 37° C., 1 hour.

Take `CC(=O)N[C@H](CCCCN)C(=O)N[C@H](CC(C)C)C(=O)N[C@H](CCCCN)C(=O)N[C@H](CCCCN)C(=O)N[C@H](CC(C)C)C(=O)N[C@H](CC(C)C)C(=O)N[C@H](CCCCN)C(=O)N[C@H](CCCCN)C(=O)N[C@H](CC(C)C)C(=O)N[C@H](CO)C(=O)N[C@H](CO)C(=O)N[C@H](C)C(=O)N[C@H](CCCCN)C(=O)N[C@H](CO)C(=O)N[C@H](CO)C(=O)N[C@H](CCCCN)C(=O)N[C@H](CC(C)C)C(=O)N[C@H](CO)C(=O)N[C@@H](C(=O)N[C@H](CC(C)C)C(=O)N[C@H](CC(C)C)C(=O)N[C@H](CCCCN)C(=O)N[C@H](CCCCN)C(=O)N[C@H](CC(C)C)C(=O)N[C@H](CCCCN)C(=O)N[C@H](CCCCN)C(N)=O)[C@H](C)O` [compound 3] (HELM PEPTIDE1{[ac].[dK].[dL].[dK].[dK].[dL].[dL].[dK].[dK].[dL].[dS].[dS].[dA].[dK].[dS].[dS].[dK].[dL].[dS].[dT].[dL].[dL].[dK].[dK].[dL].[dK].[dK].[am]}$$$$V2.0): the “Antimicrobial Activity MIC A. baumannii NCTC13420” value in data set [1] (NCTC 13420) came to 2 mg/L. Besides, in data set [2] (ATCC 27853), the “P. aeruginosa ATCC27853 MIC” value turned out to be 4 mg/L. In data set [3] (ATCC 29213), the “S. Aureus ATCC22213 MIC” value was 64 mg/L. In addition, the “Haemolysis HC50” value in the data set with Human erythrocytes (red cells of human, 1 h) is greater than 2000 µg/mL. Also, in data set [4], the “tR (relative hydrophobicity by RP-HPLC)” value was 87.37 min.

On to `CC(=O)N[C@H](CCCCN)C(=O)N[C@H](CC(C)C)C(=O)N[C@H](CCCCN)C(=O)N[C@H](CCCCN)C(=O)N[C@H](CC(C)C)C(=O)N[C@H](CC(C)C)C(=O)N[C@H](CCCCN)C(=O)N[C@H](CCCCN)C(=O)N[C@H](CC(C)C)C(=O)N[C@H](CCCCN)C(=O)N[C@H](CO)C(=O)N[C@H](C)C(=O)N[C@H](CCCCN)C(=O)N[C@H](CO)C(=O)N[C@H](CO)C(=O)N[C@H](CCCCN)C(=O)N[C@H](CC(C)C)C(=O)N[C@H](CO)C(=O)N[C@@H](C(=O)N[C@H](CC(C)C)C(=O)N[C@H](CC(C)C)C(=O)N[C@H](CO)C(=O)N[C@H](CCCCN)C(=O)N[C@H](CC(C)C)C(=O)N[C@H](CCCCN)C(=O)N[C@H](CCCCN)C(N)=O)[C@H](C)O` [compound 6] (HELM PEPTIDE1{[ac].[dK].[dL].[dK].[dK].[dL].[dL].[dK].[dK].[dL].[dK].[dS].[dA].[dK].[dS].[dS].[dK].[dL].[dS].[dT].[dL].[dL].[dS].[dK].[dL].[dK].[dK].[am]}$$$$V2.0), for which, in data set [1] (NCTC 13420), the “Antimicrobial Activity MIC A. baumannii NCTC13420” value was determined as 2 mg/L. Further, in data set [2] (ATCC 27853), the “P. aeruginosa ATCC27853 MIC” value was 2 mg/L. Further, the “S. Aureus ATCC22213 MIC” value in data set [3] (ATCC 29213) is 128 mg/L. Further, the “Haemolysis HC50” value in the data set with Human erythrocytes (red cells of human, 1 h) is greater than 2000 µg/mL.

Turning to `CC(=O)N[C@H](CCCCN)C(=O)N[C@H](CC(C)C)C(=O)N[C@H](CCCCN)C(=O)N[C@H](CCCCN)C(=O)N[C@H](CC(C)C)C(=O)N[C@H](CC(C)C)C(=O)N[C@H](CCCCN)C(=O)N[C@H](CCCCN)C(=O)N[C@H](CC(C)C)C(=O)N[C@H](CO)C(=O)N[C@H](CO)C(=O)N[C@H](C)C(=O)N[C@H](CCCCN)C(=O)N[C@H](CO)C(=O)N[C@H](CO)C(=O)N[C@H](CCCCN)C(=O)N[C@H](CC(C)C)C(=O)N[C@H](CO)C(=O)N[C@H](CO)C(=O)N[C@H](CC(C)C)C(=O)N[C@H](CC(C)C)C(=O)N[C@H](CCCCN)C(=O)N[C@H](CCCCN)C(=O)N[C@H](CC(C)C)C(=O)N[C@H](CCCCN)C(=O)N[C@H](CCCCN)C(N)=O` [compound 24] (HELM PEPTIDE1{[ac].[dK].[dL].[dK].[dK].[dL].[dL].[dK].[dK].[dL].[dS].[dS].[dA].[dK].[dS].[dS].[dK].[dL].[dS].[dS].[dL].[dL].[dK].[dK].[dL].[dK].[dK].[am]}$$$$V2.0), the “Antimicrobial Activity MIC A. baumannii NCTC13420” value in data set [1] (setting [6]) was 1 mg/L. The “P. aeruginosa ATCC27853 MIC” value in data set [2] (setting [6]) was found to be 2 mg/L. Besides, the “S. Aureus ATCC22213 MIC” value in data set [3] (setting [6]) came out at 64 mg/L. The “Antimicrobial Activity MIC A. baumannii NCTC13420 plus 20% SERUM” value in data set [5] is 2 mg/L. Further, the “Haemolysis HC50” value in the data set on Human erythrocytes (setting [7]) is greater than 2000 µg/mL.

With `CC(=O)N[C@H](C)C(=O)N[C@H](CC(C)C)C(=O)N[C@H](CCCCN)C(=O)N[C@H](CCCCN)C(=O)N[C@H](CC(C)C)C(=O)N[C@H](CC(C)C)C(=O)N[C@H](CCCCN)C(=O)N[C@H](CCCCN)C(=O)N[C@H](CC(C)C)C(=O)N[C@H](CO)C(=O)N[C@H](CO)C(=O)N[C@H](C)C(=O)N[C@H](CCCCN)C(=O)N[C@H](CO)C(=O)N[C@H](CO)C(=O)N[C@H](CCCCN)C(=O)N[C@H](CC(C)C)C(=O)N[C@H](CO)C(=O)N[C@H](CO)C(=O)N[C@H](CC(C)C)C(=O)N[C@H](CC(C)C)C(=O)N[C@H](CCCCN)C(=O)N[C@H](CCCCN)C(=O)N[C@H](CC(C)C)C(=O)N[C@H](CCCCN)C(=O)N[C@H](CCCCN)C(N)=O` [compound 25] (HELM PEPTIDE1{[ac].[dA].[dL].[dK].[dK].[dL].[dL].[dK].[dK].[dL].[dS].[dS].[dA].[dK].[dS].[dS].[dK].[dL].[dS].[dS].[dL].[dL].[dK].[dK].[dL].[dK].[dK].[am]}$$$$V2.0), the “Antimicrobial Activity MIC A. baumannii NCTC13420” value in data set [1] (setting [6]) is 2 mg/L. Further, in data set [2] (setting [6]), the “P. aeruginosa ATCC27853 MIC” value is 4 mg/L. Besides, in data set [3] (setting [6]), the “S. Aureus ATCC22213 MIC” value amounted to 128 mg/L. Moreover, in data set [5], the “Antimicrobial Activity MIC A. baumannii NCTC13420 plus 20% SERUM” value turned out to be 4 mg/L. For the same molecule, the “Haemolysis HC50” value in the data set on Human erythrocytes (setting [7]) was greater than 2000 µg/mL.
